{"source": "paper PMC9481106", "about": "“Design, synthesis and biological evaluation of 2,4-pyrimidinediamine derivatives as ALK and HDACs dual inhibitors for the treatment of ALK addicted cancer” (Journal of Enzyme Inhibition and Medicinal Chemistry, 2022)", "key": {"[1]": {"molecular_target": "HDAC1 (Homo sapiens, UniProt Q13547)", "sequence (Q13547 whole entry)": "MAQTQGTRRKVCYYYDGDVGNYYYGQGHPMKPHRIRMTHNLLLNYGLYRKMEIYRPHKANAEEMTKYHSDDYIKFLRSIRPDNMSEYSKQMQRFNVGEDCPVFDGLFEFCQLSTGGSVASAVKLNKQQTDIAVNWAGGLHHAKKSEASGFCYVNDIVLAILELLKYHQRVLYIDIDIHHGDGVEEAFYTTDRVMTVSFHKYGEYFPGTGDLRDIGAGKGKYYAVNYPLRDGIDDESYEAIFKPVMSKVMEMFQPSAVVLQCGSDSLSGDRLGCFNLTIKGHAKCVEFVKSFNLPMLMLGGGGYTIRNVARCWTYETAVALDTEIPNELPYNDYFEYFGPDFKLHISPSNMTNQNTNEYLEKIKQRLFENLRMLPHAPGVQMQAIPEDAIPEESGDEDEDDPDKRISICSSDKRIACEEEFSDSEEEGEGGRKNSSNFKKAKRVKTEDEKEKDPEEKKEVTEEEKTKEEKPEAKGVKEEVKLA", "assay": "enzyme inhibition assay with fluorescent assay kit", "format": "biochemical"}, "[2]": {"molecular_target": "ALK^wt (anaplastic lymphoma kinase) (Homo sapiens, UniProt Q9UM73)", "sequence (Q9UM73 19-1620)": "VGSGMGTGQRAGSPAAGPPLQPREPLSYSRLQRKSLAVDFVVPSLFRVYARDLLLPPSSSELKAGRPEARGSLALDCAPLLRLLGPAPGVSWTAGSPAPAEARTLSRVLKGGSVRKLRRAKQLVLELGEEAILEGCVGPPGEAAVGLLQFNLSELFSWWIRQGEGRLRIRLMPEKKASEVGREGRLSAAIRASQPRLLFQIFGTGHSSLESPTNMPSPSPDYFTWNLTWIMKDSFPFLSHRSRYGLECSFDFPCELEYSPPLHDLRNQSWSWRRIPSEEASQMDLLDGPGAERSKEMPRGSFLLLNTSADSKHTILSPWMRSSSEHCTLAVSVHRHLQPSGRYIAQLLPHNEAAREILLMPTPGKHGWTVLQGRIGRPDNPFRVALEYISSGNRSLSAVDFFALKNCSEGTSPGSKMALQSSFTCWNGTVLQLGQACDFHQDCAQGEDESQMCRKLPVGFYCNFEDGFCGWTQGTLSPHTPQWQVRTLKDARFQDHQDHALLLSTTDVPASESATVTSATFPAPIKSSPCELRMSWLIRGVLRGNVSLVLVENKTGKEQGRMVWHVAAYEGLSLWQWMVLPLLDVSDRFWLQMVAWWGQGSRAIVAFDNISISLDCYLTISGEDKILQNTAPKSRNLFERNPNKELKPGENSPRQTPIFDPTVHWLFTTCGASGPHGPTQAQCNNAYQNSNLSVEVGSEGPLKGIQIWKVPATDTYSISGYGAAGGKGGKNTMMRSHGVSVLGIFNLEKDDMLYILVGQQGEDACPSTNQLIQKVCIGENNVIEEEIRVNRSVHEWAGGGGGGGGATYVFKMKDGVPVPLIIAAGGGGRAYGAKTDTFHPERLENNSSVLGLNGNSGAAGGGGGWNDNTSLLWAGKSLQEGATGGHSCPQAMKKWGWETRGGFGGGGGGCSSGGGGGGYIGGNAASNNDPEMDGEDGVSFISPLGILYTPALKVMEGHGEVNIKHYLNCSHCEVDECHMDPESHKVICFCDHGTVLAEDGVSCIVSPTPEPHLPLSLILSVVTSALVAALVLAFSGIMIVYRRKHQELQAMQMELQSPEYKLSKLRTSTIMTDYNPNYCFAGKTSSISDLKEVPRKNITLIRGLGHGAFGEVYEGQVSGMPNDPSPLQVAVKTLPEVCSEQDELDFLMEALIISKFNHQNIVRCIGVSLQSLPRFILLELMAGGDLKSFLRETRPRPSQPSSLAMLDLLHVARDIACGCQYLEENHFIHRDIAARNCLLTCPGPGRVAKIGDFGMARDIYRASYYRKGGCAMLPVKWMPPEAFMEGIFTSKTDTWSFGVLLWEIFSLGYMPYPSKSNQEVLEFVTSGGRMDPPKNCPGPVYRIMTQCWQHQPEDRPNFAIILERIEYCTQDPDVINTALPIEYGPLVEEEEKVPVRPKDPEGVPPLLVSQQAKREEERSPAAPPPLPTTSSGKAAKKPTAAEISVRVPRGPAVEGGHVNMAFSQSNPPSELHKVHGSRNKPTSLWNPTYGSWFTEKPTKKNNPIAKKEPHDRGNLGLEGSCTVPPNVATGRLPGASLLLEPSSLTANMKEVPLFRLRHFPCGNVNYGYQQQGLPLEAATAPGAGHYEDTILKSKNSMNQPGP", "assay": "enzyme inhibition assay with fluorescent assay kit", "format": "biochemical"}}, "data": [{"smiles": "CC(C)S(=O)(=O)c1ccccc1Nc1nc(Nc2ccc(C(=O)Nc3ccccc3N)cc2)ncc1Cl", "note": "[12a, N-(2-aminophenyl)-4-((5-chloro-4-((2-(isopropylsulfonyl)phenyl)amino)pyrimidin-2-yl)amino)benzamide]", "values": [{"measurement": "IC50", "setting": "[1]", "result": 1450, "unit": "nM"}, {"measurement": "IC50", "setting": "[2]", "result": 9.5, "unit": "nM"}]}]}
